Assay results published in DBAASP.
In brackets after ≈: the same amount, converted by molar mass. One block for each molecule: values may come before it.

Experiments:
Experiment in all cases: ≥ marks a high value that may be exact or a test limit, other limits are often not marked, values filed in µg/mL are converted to µM
[1] = test system: Bacillus megaterium CGMCC 1.0459
[2] = test system: Micrococcus luteus CGMCC 1.0290
[3] = test system: Staphylococcus epidermidis ATCC 35984
[4] = test system: Staphylococcus aureus USA 300
Escherichia coli D21 = test system: Escherichia coli D21
[5] = test system: Pseudomonas aeruginosa ATCC 27853
[6] = test system: Pseudomonas syringae pv. tabaci 1918NCPPB
Acinetobacter junii RT-4 = test system: Acinetobacter junii RT-4
Saccharomyces cerevisiae = test system: Saccharomyces cerevisiae
[7] = test system: Yersinia pseudotuberculosis YPIII
[8] = test system: Pseudomonas aeruginosa ATCC 15692
[9] = test system: Enterococcus faecalis ATCC 29212
[10] = test system: Staphylococcus epidermidis ATCC 12228
[11] = test system: Staphylococcus aureus ATCC 25923
Staphylococcus capitis 1 = test system: Staphylococcus capitis 1
[12] = test system: Streptococcus pyogenes ATCC 21547
[13] = test system: Acinetobacter baumannii ATCC 19606
[14] = test system: Escherichia coli ATCC 25922
[15] = test system: Candida albicans ATCC 10231
[16] = test system: Schizosaccharomyces pombe
Bacillus megaterium Bm11 = test system: Bacillus megaterium Bm11
[17] = test system: Staphylococcus aureus Cowan 1
[18] = test system: Trichophyton rubrum IP2043-92
[19] = test system: Staphylococcus aureus IP76-25
[20] = test system: Cryptococcus neoformans IP960-67
[21] = test system: Aspergillus niger IP218-53
[22] = test system: Cryptococcus neoformans IP962-67
Escherichia coli IP76-24 = test system: Escherichia coli IP76-24
[23] = test system: Aeromonas caviae IP67-16T
[24] = test system: Saccharomyces cerevisiae IP118079
[25] = test system: Aspergillus fumigatus IP1025-70
[26] = test system: Candida albicans IP886-65
[27] = test system: Trichophyton simii J43 IP903-65
[28] = test system: Candida albicans IP884-65
[29] = test system: Trichophyton mentagrophytes IP877-71
Microsporum canis IP1194 = test system: Microsporum canis IP1194
[30] = test system: Trichophyton simii IP1063-74
[31] = test system: Enterococcus faecalis IP103214
[32] = test system: Nocardia brasiliensis IP16-80
Acinetobacter baumannii = test system: Acinetobacter baumannii
[33] = test system: Bacillus subtilis NBRC 3513
[34] = test system: Bacillus megaterium ATCC 19213
[35] = test system: Staphylococcus aureus NBRC 12732
[36] = test system: Staphylococcus epidermidis NBRC 12933
[37] = test system: Staphylococcus aureus ATCC 25929

MIC [1]: 1.5 µM (≈ 6.96 µg/mL)
MIC [2]: 4.54 µM (≈ 21.1 µg/mL)
Structure (SMILES): CC(C)C[C@@H]1NC(=O)[C@@H]2CSSC[C@@H](C(=O)N[C@@H](CCCN=C(N)N)C(=O)O)NC(=O)[C@H](C(C)C)NC(=O)[C@@H]3CSSC[C@H](NC(=O)[C@H](C)NC(=O)[C@H](CO)NC(=O)[C@H](Cc4cnc[nH]4)NC(=O)[C@H](CC(N)=O)NC(=O)[C@@H]4CCCN4C(=O)[C@H](CO)NC(=O)[C@H](C(C)C)NC(=O)[C@H](Cc4c[nH]c5ccccc45)NC(=O)[C@H](CCCCN)NC(=O)[C@H](CO)NC(=O)[C@H](CCC(N)=O)NC(=O)[C@H](Cc4ccccc4)NC(=O)[C@H](CO)NC(=O)[C@H](CC(C)C)NC(=O)[C@H](C(C)C)NC(=O)[C@H](CC(=O)O)NC(=O)[C@@H](NC(=O)[C@H](CO)NC(=O)[C@@H](N)Cc4ccccc4)CSSC[C@H](NC(=O)[C@H](CCCCN)NC(=O)CNC(=O)CNC(=O)[C@H](CCCCN)NC(=O)[C@H](CCCN=C(N)N)NC(=O)[C@H](CCCN=C(N)N)NC(=O)[C@H](CCC(N)=O)NC(=O)[C@H](C)NC1=O)C(=O)N[C@@H](CCCCN)C(=O)N[C@@H](CC(N)=O)C(=O)NCC(=O)N[C@@H](CC(=O)O)C(=O)N3)C(=O)N[C@@H](C)C(=O)N[C@@H](C(C)C)C(=O)N[C@@H](CCCN=C(N)N)C(=O)N2 [FSCDVLSFQSKWVSPNHSACAVRCLAQRRKGGKCKNGDCVCR]

MIC [3]: ≥ 64 µM
MIC [4]: ≥ 64 µM
Structure (SMILES): CC[C@H](C)[C@H](NC(=O)[C@H](C)NC(=O)[C@H](CCCCN)NC(=O)[C@@H](NC(=O)[C@@H](NC(=O)[C@H](CCCCN)NC(=O)[C@@H](NC(=O)[C@@H](NC(=O)[C@@H](NC(=O)CNC(=O)[C@@H](N)C(C)C)[C@@H](C)O)[C@@H](C)CC)[C@@H](C)CC)[C@@H](C)CC)[C@@H](C)CC)C(=O)N[C@H](C(=O)N[C@@H](CC(=O)O)C(=O)N[C@H](C(=O)N[C@@H](Cc1ccccc1)C(=O)N[C@@H](C)C(=O)N[C@@H](CCCCN)C(=O)O)[C@@H](C)CC)[C@@H](C)CC [VGTIIKIIKAIIDIFAK]

MIC (Escherichia coli D21): 24 µM (≈ 38.7 µg/mL)
MIC [5]: 48 µM (≈ 77.4 µg/mL)
MIC [6]: 24 µM (≈ 38.7 µg/mL)
MIC (Acinetobacter junii RT-4): 6 µM (≈ 9.67 µg/mL)
MIC (Saccharomyces cerevisiae): 6 µM (≈ 9.67 µg/mL)
MIC [7]: 6 µM (≈ 9.67 µg/mL)
MIC [8]: 24 µM (≈ 38.7 µg/mL)
MIC [9]: 12 µM (≈ 19.3 µg/mL)
MIC [10]: 6 µM (≈ 9.67 µg/mL)
MIC [11]: 6 µM (≈ 9.67 µg/mL)
MIC (Staphylococcus capitis 1): 6 µM (≈ 9.67 µg/mL)
MIC [12]: 6 µM (≈ 9.67 µg/mL)
MIC [13]: 6 µM (≈ 9.67 µg/mL)
MIC [14]: 12 µM (≈ 19.3 µg/mL)
MIC [15]: 12 µM (≈ 19.3 µg/mL)
MIC [16]: 6 µM (≈ 9.67 µg/mL)
MIC (Bacillus megaterium Bm11): 3 µM (≈ 4.84 µg/mL)
MIC [17]: 12 µM (≈ 19.3 µg/mL)
Structure (SMILES): CC[C@H](C)[C@H](NC(=O)[C@H](CCCCN)NC(=O)CNC(=O)[C@H](CC(C)C)NC(=O)[C@H](Cc1ccccc1)NC(=O)[C@H](CCCCN)NC(=O)[C@H](CO)NC(=O)[C@H](Cc1ccccc1)NC(=O)[C@H](Cc1c[nH]c2ccccc12)NC(=O)[C@H](CCC(N)=O)NC(=O)[C@@H](NC(=O)[C@@H](N)Cc1ccccc1)C(C)C)C(=O)N[C@@H](CC(C)C)C(N)=O [FVQWFSKFLGKIL]

MIC [18]: ≥ 40 µM
MIC [19]: 10 µM (≈ 27.8 µg/mL)
MIC [20]: 2 µM (≈ 5.56 µg/mL)
MIC [21]: 30 µM (≈ 83.4 µg/mL)
MIC [22]: 1 µM (≈ 2.78 µg/mL)
MIC (Escherichia coli IP76-24): 4 µM (≈ 11.1 µg/mL)
MIC [23]: 0.5 µM (≈ 1.39 µg/mL)
MIC [24]: 20 µM (≈ 55.6 µg/mL)
MIC [25]: 20 µM (≈ 55.6 µg/mL)
MIC [26]: 20 µM (≈ 55.6 µg/mL)
MIC [27]: 20 µM (≈ 55.6 µg/mL)
MIC [28]: 20 µM (≈ 55.6 µg/mL)
MIC [29]: 20 µM (≈ 55.6 µg/mL)
MIC (Microsporum canis IP1194): 15 µM (≈ 41.7 µg/mL)
MIC [30]: 30 µM (≈ 83.4 µg/mL)
MIC [31]: 20 µM (≈ 55.6 µg/mL)
MIC [32]: 10 µM (≈ 27.8 µg/mL)
MIC (Acinetobacter baumannii): 4.5 µM (≈ 12.5 µg/mL)
Structure (SMILES): CSCC[C@H](NC(=O)[C@H](Cc1c[nH]c2ccccc12)NC(=O)[C@H](CC(C)C)NC(=O)[C@H](C)N)C(=O)N[C@H](C(=O)N[C@@H](CC(C)C)C(=O)N[C@@H](CC(C)C)C(=O)N[C@@H](CCCCN)C(=O)N[C@@H](CCCCN)C(=O)N[C@H](C(=O)N[C@@H](CC(C)C)C(=O)N[C@@H](CCCCN)C(=O)N[C@@H](C)C(=O)N[C@@H](C)C(=O)N[C@@H](C)C(=O)N[C@@H](CCCCN)C(=O)N[C@@H](C)C(=O)N[C@@H](CC(C)C)C(=O)N[C@@H](CC(N)=O)C(=O)N[C@@H](C)C(=O)N[C@H](C(=O)N[C@@H](CC(C)C)C(=O)N[C@H](C(=O)NCC(=O)N[C@@H](C)C(=O)N[C@@H](CC(N)=O)C(=O)N[C@@H](C)C(=O)O)C(C)C)C(C)C)C(C)C)[C@@H](C)O [ALWMTLLKKVLKAAAKALNAVLVGANA]

MIC [33]: ≥ 32 µM
MIC [34]: 16 µM (≈ 22.7 µg/mL)
MIC [35]: 16 µM (≈ 22.7 µg/mL)
MIC [36]: ≥ 32 µM
Structure (SMILES): CC[C@H](C)[C@H](NC(=O)[C@H](C)N)C(=O)N[C@@H](Cc1ccccc1)C(=O)N[C@H](C(=O)N[C@@H](Cc1ccccc1)C(=O)N[C@H](C(=O)N[C@@H](CCCN=C(N)N)C(=O)N[C@@H](Cc1c[nH]c2ccccc12)C(=O)N[C@@H](CC(C)C)C(=O)N[C@@H](CC(C)C)C(=O)N[C@@H](CCCCN)C(=O)O)[C@@H](C)CC)[C@@H](C)CC [AIFIFIRWLLK]

MIC [37]: 8 µM (≈ 15.8 µg/mL)
MIC [14]: 16 µM (≈ 31.5 µg/mL)
Structure (SMILES): CC(C)C[C@H](NC(=O)[C@H](CC(C)C)NC(=O)[C@@H](NC(=O)[C@@H]1CCCN1C(=O)[C@H](CCCCN)NC(=O)[C@@H](N)[C@@H](C)O)[C@@H](C)O)C(=O)NCC(=O)N[C@@H](CC(C)C)C(=O)N1CCC[C@H]1C(=O)N[C@@H](CC(C)C)C(=O)NCC(=O)N[C@@H](C)C(=O)NCC(=O)N1CCC[C@H]1C(=O)N[C@@H](C)C(=O)N[C@@H](C)C(=O)NCC(=O)N1CCC[C@H]1C(=O)NCC(=O)N[C@@H](CCCCN)C(=O)N[C@@H](CCCN=C(N)N)C(N)=O [TKPTLLGLPLGAGPAAGPGKR]
